Laboratory results taken from ChEMBL document CHEMBL1149924, “Structure activity studies on pseudo-symmetrical HIV-1 protease inhibitors” (Bioorg Med Chem Lett, 1993).

Assays:
[1] = molecular target: T1, Human immunodeficiency virus type 1 protease (Human immunodeficiency virus 1, UniProt Q72874); experiment: Inhibitory activity against HIV-1 protease
MT2 = experiment: Compound was evaluated for its inhibitory activity against HIV-1-IIIB infected MT2 cells (human T lymphoid cells); assay type: functional, cell-based
[2] = molecular target: T1, Human immunodeficiency virus type 1 protease; experiment: Compound was evaluated for its inhibitory activity in recombinant HIV-l protease
[3] = molecular target: T1, Human immunodeficiency virus type 1 protease; experiment: Compound was evaluated for its binding affinity against HIV-1 protease using [125I]-SPA (scintillation proximity assay)
[4] = molecular target: T1, Human immunodeficiency virus type 1 protease; experiment: Compound was evaluated for its inhibitory activity against recombinant HIV-1 protease using [125I]-SPA (scintillation proximity assay)

Structure (SMILES): CCCC[C@H](CC1(C[C@@H](CCCC)C(=O)N[C@@H](CC(C)C)C(=O)N[C@@H](Cc2ccccc2)C(=O)OC)CO1)C(=O)N[C@@H](CC(C)C)C(=O)N[C@@H](Cc1ccccc1)C(=O)OC
- IC50 [1]: 400 nM

Structure (SMILES): COC(=O)[C@@H](NC(=O)[C@@H](NC(=O)[C@H](Cc1ccccc1)CC(O)C[C@@H](Cc1ccccc1)C(=O)N[C@H](C(=O)N[C@H](C(=O)OC)C(C)C)C(C)C)C(C)C)C(C)C
- IC50 (MT2): 1600 nM
- IC50 [1]: 5 nM

Structure (SMILES): CC[C@H](C)[C@H](NC(=O)[C@H](Cc1ccccc1)CC(O)C[C@@H](Cc1ccccc1)C(=O)N[C@H](C(=O)NCc1ccccn1)[C@@H](C)CC)C(=O)NCc1ccccn1
- IC50 (MT2): 500 nM
- IC50 [2]: 450 nM

Structure (SMILES): CC(C)[C@H](NC(=O)[C@H](Cc1ccccc1)CC(O)C[C@@H](Cc1ccccc1)C(=O)N[C@H](C(=O)NCc1nc2ccccc2[nH]1)C(C)C)C(=O)NCc1nc2ccccc2[nH]1
- IC50 (MT2): 2100 nM
- IC50 [1]: 10 nM

Structure (SMILES): CC(C)CNC(=O)[C@H](Cc1ccccc1)CC(O)C[C@@H](Cc1ccccc1)C(=O)NCC(C)C
- IC50 [1]: > 1000 nM

Structure (SMILES): COC(=O)[C@H](Cc1ccccc1)NC(=O)[C@H](CC(C)C)NC(=O)[C@H](Cc1ccccc1)CC(O)C[C@@H](Cc1ccccc1)C(=O)N[C@@H](CC(C)C)C(=O)N[C@@H](Cc1ccccc1)C(=O)OC
- IC50 (MT2): 2300 nM
- IC50 [1]: 30 nM

Structure (SMILES): COC(=O)[C@H](Cc1ccccc1)NC(=O)[C@@H](NC(=O)[C@H](Cc1ccccc1)CC(O)C[C@@H](Cc1ccccc1)C(=O)N[C@H](C(=O)N[C@@H](Cc1ccccc1)C(=O)OC)C(C)C)C(C)C
- IC50 (MT2): 2400 nM
- IC50 [1]: 10 nM

Structure (SMILES): CCCC[C@H](CC(O)C[C@@H](CCCC)C(=O)N[C@@H](CC(C)C)C(=O)N[C@@H](Cc1ccccc1)C(=O)OC)C(=O)N[C@@H](CC(C)C)C(=O)N[C@@H](Cc1ccccc1)C(=O)OC
- IC50 [1]: 90 nM

Structure (SMILES): CC[C@H](C)[C@H](NC(=O)[C@H](Cc1ccccc1)CC(O)C[C@@H](Cc1ccccc1)C(=O)N[C@H](C(=O)NCC1CCc2ccccc2N1)[C@@H](C)CC)C(=O)NCC1CCc2ccccc2N1 (stereo not given in full)
- IC50 (MT2): 7500 nM
- IC50 [2]: 1200 nM

Structure (SMILES): CCCC[C@H](CC(O)(CO)C[C@@H](CCCC)C(=O)N[C@@H](CC(C)C)C(=O)N[C@@H](Cc1ccccc1)C(=O)OC)C(=O)N[C@@H](CC(C)C)C(=O)N[C@@H](Cc1ccccc1)C(=O)OC
- IC50 [1]: 2000 nM

Structure (SMILES): CCCC[C@H](CC(O)C[C@@H](CCCC)C(=O)N[C@H](C(=O)N[C@H](C(=O)OC)C(C)C)C(C)C)C(=O)N[C@H](C(=O)N[C@H](C(=O)OC)C(C)C)C(C)C
- IC50 [1]: 5 nM

Structure (SMILES): COC(=O)[C@@H](NC(=O)[C@@H](NC(=O)[C@@H](CC(=O)C[C@@H](Cc1ccccc1)C(=O)N[C@H](C(=O)N[C@H](C(=O)OC)C(C)C)C(C)C)Cc1ccccc1)C(C)C)C(C)C
- IC50 [1]: > 10000 nM

Structure (SMILES): CC[C@H](C)[C@H](NC(=O)[C@H](Cc1ccccc1)CC(O)C[C@@H](Cc1ccccc1)C(=O)N[C@H](C(=O)NCc1nc2ccccc2[nH]1)[C@@H](C)CC)C(=O)NCc1nc2ccccc2[nH]1
- IC50 (MT2): 400 nM
- Ki [3]: 3.5 nM
- IC50 [4]: 40000 nM
- IC50 [1]: 3 nM

Structure (SMILES): CC[C@H](C)[C@H](NC(=O)[C@H](Cc1ccccc1)CC(O)C[C@@H](Cc1ccccc1)C(=O)N[C@H](C(=O)NCCN1CCOCC1)[C@@H](C)CC)C(=O)NCCN1CCOCC1
- IC50 (MT2): > 10000 nM
- IC50 [2]: 850 nM

Structure (SMILES): CCCC[C@H](CC(O)C[C@@H](CCCC)C(=O)N[C@@H](C)C(=O)N[C@@H](C)C(=O)OC)C(=O)N[C@@H](C)C(=O)N[C@@H](C)C(=O)OC
- IC50 [1]: 75 nM
